Square brackets hold non-standard residues; d marks the D form. βAla = NCCC(=O)O
Legend:
[1] = test system: Sf9 cells expressing full length or truncated αV or β3; assay: Metabolic pulse labelling of proteins expressed in Sf9 cells; assay type: cell-based, insect; settings: tunicamycin 10 μM or 10 μg/ml for 16 hours before and during pulse labelling; SDS-PAGE
Protocol: The cell extracts were resolved by SDS-PAGE under reducing conditions. The molecular mass in kDa of standard protein markers are indicated on the right. • (B) Sf9 cells infected with αV (FL) (lanes 1 and 2), αV(SL) (lane 3 and 4), β3 (FL) (lane 5 and 6) and β3(SL) (lane 7 and 8) were either treated with 10 μM Tunicamycin in DMSO (lanes 1, 3, 5 and 7) or with DMSO alone (lanes 2, 4, 6 and 8). The infected cells were metabolically pulse labelled as above. Standard protein markers are indicated on the right.
Similarly, Sf9 cells expressing full length β3 how two bands of approximately 90 kDa and 125 kDa (FIG. 2A, lane 4).
Metabolic labelling of Sf9 cells was performed as described (Summer and Smith 1987: A manual of methods for baculovirus vectors and insect cell procedures. Texas Agricultural Experiment Station Bulletin B-1555). Where indicated, tunicamycin (Sigma) was present at 10 μg/ml for 16 hours before and during pulse labelling. Cells were lysed with 100 μl of buffer [1% Nonidet® P-40, 1 mM CaCl2, 150 mM NaCl, 0.4 mM Pefabloc® (Boehringer Mann-heim), 10 μg/ml Leupeptin and E64 (Sigma), 10 mM Tris/HCl; pH 7.4; Nonidet P-40 is a detergent and Pefabloc is a protease inhibitor]. […]

[2] = test system: αVβ3 receptor (placenta, full length recombinant, soluble recombinant); assay: Ligand binding assay: biotinylated ligands on immobilized integrins; parameters: species or system human; settings: full length and soluble recombinant αVβ3, compared with placental αVβ3; result in words
Protocol: The truncated and full length recombinant αVβ3 and placenta αVβ3 are immobilized and binding of biotinylated ligands is examined. Three purified RGD-containing ligands—vitronectin, fibrinogen and fibronectin—that are known to bind to αVβ3 are used. […] Vitronectin is used for testing specific interaction with the recombinant αVβ3. Biotinylated vitronectin and increasing concentrations of above-specified peptides or non-peptidic analogues are incubated in parallel with immobilized receptor.
Proteins in PBS were diluted with 5-fold concentrated ligation buffer [500 mM NaCl, 500 mM NaHCO3] to 1 mg/ml protein. Freshly prepared N-hydroxysuccinimidobiotin (Sigma) [1 mg/ml in DMSO] was added to 0.1 mg/ml and incubated for 2 h at 20° C. After dialysis [PBS, 0.025% NaN3], protein concentration was determined. The biotinylated proteins were stored at 4° C.
Ligand Binding assay Integrins were diluted to 1 μg/ml in coating buffer [150 mM NaCl, 1 mM CaCl2, 1 mM MgCl2, 10 μM MnCl2, 20 mM Tris-HCl; pH 7.4) and 100 μl were adsorbed overnight at 4° C. to 96-well microtitre plates. The plates were washed once with binding buffer [0.1% (w/v) BSA in coating buffer] and blocked with blocking buffer (coating buffer containing 3% (w/v) BSA) 2 h at 37° C. After rinsing with binding buffer, serially diluted biotinylated ligands were added. After incubation (3 h, 37° C.), unbound ligand was washed from the plate with binding buffer, and bound biotin was detected by incubation with antibiotin-alkaline-phosphatase conjugated antibody and detection of bound antibody with p-Nitrophenyl-phosphate (BIO-RAD) substrate.
Target sequence in this assay (P06756 31-987 limits assumed): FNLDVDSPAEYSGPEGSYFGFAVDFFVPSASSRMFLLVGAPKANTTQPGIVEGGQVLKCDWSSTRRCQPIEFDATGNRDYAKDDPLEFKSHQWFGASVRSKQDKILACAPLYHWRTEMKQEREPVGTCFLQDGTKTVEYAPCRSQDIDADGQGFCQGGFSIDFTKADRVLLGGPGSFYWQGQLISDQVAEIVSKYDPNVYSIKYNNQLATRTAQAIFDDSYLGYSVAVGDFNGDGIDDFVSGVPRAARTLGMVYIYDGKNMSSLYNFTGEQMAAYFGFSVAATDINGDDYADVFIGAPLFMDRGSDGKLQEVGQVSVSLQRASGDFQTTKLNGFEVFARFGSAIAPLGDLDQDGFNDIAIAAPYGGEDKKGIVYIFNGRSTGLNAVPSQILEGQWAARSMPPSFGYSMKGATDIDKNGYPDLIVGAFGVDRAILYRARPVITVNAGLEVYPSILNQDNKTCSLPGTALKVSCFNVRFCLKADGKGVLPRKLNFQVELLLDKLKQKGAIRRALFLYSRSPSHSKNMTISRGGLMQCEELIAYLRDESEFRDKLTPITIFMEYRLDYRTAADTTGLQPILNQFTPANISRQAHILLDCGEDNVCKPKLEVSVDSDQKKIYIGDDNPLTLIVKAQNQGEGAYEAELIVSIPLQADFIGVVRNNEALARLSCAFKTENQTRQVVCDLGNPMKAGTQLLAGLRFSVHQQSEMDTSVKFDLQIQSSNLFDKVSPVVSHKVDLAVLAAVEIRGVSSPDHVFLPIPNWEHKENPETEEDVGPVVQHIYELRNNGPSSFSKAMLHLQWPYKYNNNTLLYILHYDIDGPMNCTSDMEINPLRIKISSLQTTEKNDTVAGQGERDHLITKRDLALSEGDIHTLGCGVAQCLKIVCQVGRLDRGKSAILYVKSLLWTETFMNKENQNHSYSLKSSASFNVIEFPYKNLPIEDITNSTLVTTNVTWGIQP
Target sequence in this assay (P05106 27-718 limits assumed, further chain): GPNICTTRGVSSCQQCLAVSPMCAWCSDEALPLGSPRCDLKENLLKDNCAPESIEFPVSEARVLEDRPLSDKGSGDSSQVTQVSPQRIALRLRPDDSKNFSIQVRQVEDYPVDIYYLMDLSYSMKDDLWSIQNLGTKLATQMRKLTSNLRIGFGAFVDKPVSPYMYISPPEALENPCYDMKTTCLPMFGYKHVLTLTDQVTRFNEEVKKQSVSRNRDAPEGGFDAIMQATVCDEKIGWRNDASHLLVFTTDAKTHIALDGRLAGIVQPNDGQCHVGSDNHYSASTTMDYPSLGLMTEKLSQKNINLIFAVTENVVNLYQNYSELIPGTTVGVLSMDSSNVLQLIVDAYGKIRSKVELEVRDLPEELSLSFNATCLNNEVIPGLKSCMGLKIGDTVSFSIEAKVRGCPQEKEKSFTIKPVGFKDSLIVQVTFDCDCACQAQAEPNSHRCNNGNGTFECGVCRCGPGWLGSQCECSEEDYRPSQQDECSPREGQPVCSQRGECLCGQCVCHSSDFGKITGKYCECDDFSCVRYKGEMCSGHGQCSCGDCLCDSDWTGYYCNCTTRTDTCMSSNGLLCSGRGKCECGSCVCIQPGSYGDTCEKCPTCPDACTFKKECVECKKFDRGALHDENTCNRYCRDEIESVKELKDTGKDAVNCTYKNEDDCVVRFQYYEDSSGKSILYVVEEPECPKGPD

[3] = test system: αV and β3 virus infected Sf9 cells; assay: Cell shape change studies of virus-infected Sf9 cells on vitronectin coated plates; assay type: cell-based, insect; settings: result in words
Description: Integrins determine and modulate the cell shape by acting as structural links between the extracellular matrix and the cytoskeleton (Schwartz et al. 1995, Ann. Rev. Cell Dev. Biol. 11, 549; Montgomery et al. 1994, Proc. Natl. Acad. Sci. USA 91, 8856). In later phases of baculovirus infection, Sf9/High Five cells are usually rounded and loosely attached (FIG. 3A), as were the cells infected with either of the αV or β3 expressing recombinant baculovirus alone or with the null recombinant virus (FIG. 3A). […] No shape change is observed in cells co-infected with αV(FL)+β3(SL) or αV(SL)+β3(SL). […] Correspondingly, cell shape change of αV and β3 virus infected Sf9 cells on vitronectin coated plates are inhibited when challenged with RGD peptides (Table 1).
Sf9 cells (1×10^6 cells/well) were allowed to adhere to six-well plates either virgin or coated with purified human plasma vitronectin (5 μg/ml in PBS; 2 hours) followed by blocking of non-specific sites (3% BSA (w/v) in PBS), then infected with various virus combinations. The cells were observed 48 hours post-infection for cell shape change.

[4] = molecular target: αVβ3 receptor (placenta, full length recombinant, soluble recombinant); assay: Competition assay: inhibition of biotinylated vitronectin binding to immobilized integrin; parameters: species or system human; settings: biotinylated vitronectin 1 μg/ml, 3 h, 37° C.
Protocol: The truncated and full length recombinant αVβ3 and placenta αVβ3 are immobilized and binding of biotinylated ligands is examined. Three purified RGD-containing ligands—vitronectin, fibrinogen and fibronectin—that are known to bind to αVβ3 are used. […] Biotinylated vitronectin and increasing concentrations of above-specified peptides or non-peptidic analogues are incubated in parallel with immobilized receptor.
Integrins were immobilized as described above. Serially diluted cyclic peptides were added in parallel with biotinylated vitronectin (1 μg/ml). After 3 h incubation at 37° C., bound ligand was detected as described above. […]

In the case of tunicamycin, the “production of the slower migrating (glycosylated) band” value [1] is reported as “inhibits the production of the slower migrating band”.
For fibrinogen, the “binding of biotinylated ligand to immobilized receptor” value (from here on “binding of biotinylated ligand”) [2] was “bind both to the full length and soluble receptor preparations in a concentration dependent manner”.
With fibronectin the “binding of biotinylated ligand” value [2] was “bind both to the full length and soluble receptor preparations in a concentration dependent manner”.
With “vitronectin: purified RGD-containing ligand from human plasma, biotinylated” the “binding of biotinylated ligand” value [2] was “bind both to the full length and soluble receptor preparations in a concentration dependent manner”.
“cyc(RGEfV) (cyclo(RGE[dF]V); SMILES CC(C)[C@@H]1NC(=O)[C@@H](Cc2ccccc2)NC(=O)[C@H](CCC(=O)O)NC(=O)CNC(=O)[C@H](CCCNC(=N)N)NC1=O) [control peptide where glutamate was substituted for aspartate]” was tested, and the “effect on cell shape change of αV and β3 virus infected Sf9 cells” value [3] was “no effect”.
For CC(C)[C@@H]1NC(=O)[C@@H](Cc2ccccc2)NC(=O)[C@H](CC(=O)O)NC(=O)CNC(=O)[C@H](CCCNC(=N)N)NC1=O [cyc(RGDfV)], the IC50 [4] was 1 to 5 nM.
With “cyc(RβADfV) (cyclo(R[βAla]D[dF]V); SMILES CC(C)[C@@H]1NC(=O)[C@@H](Cc2ccccc2)NC(=O)[C@H](CC(=O)O)NC(=O)CCNC(=O)[C@H](CCCNC(=N)N)NC1=O) [control peptide where β-alanine was substituted for glycine]” the “effect on cell shape change of αV and β3 virus infected Sf9 cells” value [3] was “no effect”.

From patent US8067197B2, “Soluble recombinant αvβ3 adhesion receptor” (Merck Patent GmbH, priority 1996, dated 2011)
